# Test results: article PMC5793121 (Toxins, 2018)
# “Also recorded” adds a separate entry of the source. No end group written: not given here.
# Key:
# [1] = target: T1, mouse muscle type α1β1εδ nAChR (Mus musculus, UniProt P02716+P04756+P20782); assay: Calcium imaging of ACh-evoked [Ca2+]i rise in Neuro2a cells expressing muscle nAChR (Case12 sensor); format: cell-based
# T1 construct: expressed in transfected cells; host or cells: mouse neuroblastoma Neuro2a, transient transfection (pRBG4 plasmids), co-expressed with Case12 calcium sensor
# T1 sequence (P09690 24-501): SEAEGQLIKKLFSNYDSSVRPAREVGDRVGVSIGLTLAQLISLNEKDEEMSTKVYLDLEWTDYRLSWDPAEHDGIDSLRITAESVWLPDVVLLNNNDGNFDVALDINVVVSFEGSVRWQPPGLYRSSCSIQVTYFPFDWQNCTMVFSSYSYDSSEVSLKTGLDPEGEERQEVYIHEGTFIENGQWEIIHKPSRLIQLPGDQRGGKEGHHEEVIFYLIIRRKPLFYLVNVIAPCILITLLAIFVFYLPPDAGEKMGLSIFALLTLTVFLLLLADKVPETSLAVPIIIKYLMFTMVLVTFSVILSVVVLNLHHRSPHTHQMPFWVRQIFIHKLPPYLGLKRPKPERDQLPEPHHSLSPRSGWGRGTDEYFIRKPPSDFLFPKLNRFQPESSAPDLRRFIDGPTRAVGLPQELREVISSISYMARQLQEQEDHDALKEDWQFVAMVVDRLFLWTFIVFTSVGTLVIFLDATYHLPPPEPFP
# T1 sequence (P04756 21-457): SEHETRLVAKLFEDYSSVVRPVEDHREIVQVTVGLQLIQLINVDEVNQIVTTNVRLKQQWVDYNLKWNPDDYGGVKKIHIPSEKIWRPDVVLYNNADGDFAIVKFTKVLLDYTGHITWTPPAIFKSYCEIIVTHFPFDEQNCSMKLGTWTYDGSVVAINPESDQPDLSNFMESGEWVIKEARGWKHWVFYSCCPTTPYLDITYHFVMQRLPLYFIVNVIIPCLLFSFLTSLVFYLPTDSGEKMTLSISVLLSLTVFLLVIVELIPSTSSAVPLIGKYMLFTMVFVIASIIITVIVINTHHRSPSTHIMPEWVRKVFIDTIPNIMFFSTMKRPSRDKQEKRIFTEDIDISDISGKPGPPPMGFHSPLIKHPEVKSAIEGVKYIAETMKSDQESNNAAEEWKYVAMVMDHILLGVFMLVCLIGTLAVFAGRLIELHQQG
# T1 sequence (P02716 25-520): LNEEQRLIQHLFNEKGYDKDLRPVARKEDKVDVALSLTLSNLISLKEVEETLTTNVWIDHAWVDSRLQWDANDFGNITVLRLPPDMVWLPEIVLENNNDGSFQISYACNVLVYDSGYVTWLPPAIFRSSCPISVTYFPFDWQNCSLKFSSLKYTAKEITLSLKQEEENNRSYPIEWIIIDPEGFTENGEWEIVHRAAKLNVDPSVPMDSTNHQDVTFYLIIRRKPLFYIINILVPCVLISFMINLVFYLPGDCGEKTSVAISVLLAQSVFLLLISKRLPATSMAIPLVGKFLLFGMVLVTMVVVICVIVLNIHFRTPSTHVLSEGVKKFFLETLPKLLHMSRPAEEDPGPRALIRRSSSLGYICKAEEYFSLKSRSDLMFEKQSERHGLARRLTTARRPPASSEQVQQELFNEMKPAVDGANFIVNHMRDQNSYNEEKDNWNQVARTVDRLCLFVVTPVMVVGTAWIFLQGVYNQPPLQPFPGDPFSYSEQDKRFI
# T1 sequence (P20782 21-493): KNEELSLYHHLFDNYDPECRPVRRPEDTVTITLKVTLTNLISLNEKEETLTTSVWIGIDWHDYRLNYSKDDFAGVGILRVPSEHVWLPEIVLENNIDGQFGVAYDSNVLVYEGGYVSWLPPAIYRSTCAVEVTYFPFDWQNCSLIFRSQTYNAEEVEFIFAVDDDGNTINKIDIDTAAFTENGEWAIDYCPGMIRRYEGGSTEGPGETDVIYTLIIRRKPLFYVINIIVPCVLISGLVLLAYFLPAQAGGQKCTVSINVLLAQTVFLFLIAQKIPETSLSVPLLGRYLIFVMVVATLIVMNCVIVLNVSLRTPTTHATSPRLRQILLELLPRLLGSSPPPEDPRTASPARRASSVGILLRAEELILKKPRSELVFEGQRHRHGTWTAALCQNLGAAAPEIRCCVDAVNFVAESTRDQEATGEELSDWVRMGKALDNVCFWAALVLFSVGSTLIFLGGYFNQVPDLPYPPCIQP
# Experimental: Mouse neuroblastoma Neuro2a cells were purchased from the Russian collection of cell cultures (Institute of Cytology, Russian Academy of Sciences, Saint Petersburg, Russia). Cells were cultured in DMEM (Paneco, Moscow, Russia) supplemented with 10% FBS. They were sub-cultured the day before transfection and were plated at a density of 10,000 cells per well in a 96-well black plate. On the next day Neuro2a cells were transiently transfected with plasmids coding mouse muscle α1β1δε nAChR (pRBG4-vector) and a fluorescent calcium sensor Case12 (pCase12-cyto vector, Evrogen, Moscow, Russia) in a molar ratio of 2:1 following a lipofectamine transfection protocol (ThermoFisher Scientific, Waltham, MA, USA). Human α7 nAChR (α7 nAChR-pCEP4) was expressed accordingly with a co-expression of the human chaperone Ric-3 (Ric3-pCMV6-XL5, OriGene, Rockville, MD, USA) in a molar ratio 4:1. The transfected cells were grown at 37 °C in a CO2 incubator for 48–72 h, before performing the calcium imaging assay.
# Calcium imaging procedure was performed as published earlier. Briefly, after removing the growth medium, the transfected Neuro2a cells and cultivated SH-SY5Y cells were washed with a buffer containing 140 mM NaCl, 2 mM CaCl2, 2.8 mM KCl, 4 mM MgCl2, 20 mM HEPES, 10 mM glucose; pH 7.4. Neuro2a cells expressing muscle nAChR and the protein calcium sensor Case12 were proceeded directly, while SH-SY5Y cells expressing human α3-containing nAChRs natively were loaded with a fluorescent dye Fluo-4, AM (1.824 μM, ThermoFisher Scientific, Waltham, MA, USA) and a water-soluble probenecid (1.25 mM, ThermoFisher Scientific, Waltham, MA, USA) for 30 min at 37 °C and then were kept for 30 min at room temperature according to the manufacturer’s protocol.
# To detect the human α7 nAChR-mediated calcium response, transfected Neuro2a cells were incubated with its positive allosteric modulator PNU120596 (10 μM, Tocris Bioscience, Bristol, UK) for 20 min at room temperature before acetylcholine (Sigma-Aldrich Chemie Gmbh, Munich, Germany) addition. To assess mouse muscle or human α3-containing nAChRs this step was skipped. […]
# The plates were transferred to the multimodal microplate reader Hidex Sence (Hidex, Turku, Finland) where the cells were excited by light of 485 nm wavelength and emitted fluorescence was detected at 535 ± 10 nm. Fluorescence was recorded every 2 s for three minutes following agonist addition. Responses were measured as peak intensity minus basal fluorescence level and were expressed as a percentage of the maximal response obtained to agonist. Data files were analyzed using Hidex Sence software (Hidex, Turku, Finland) and OriginPro 7.5 software (OriginLab, Northampton, MA, USA, for statistical analysis).
# male ICR mice [2] = assay: Forelimb grip strength test (muscle relaxant effect) after intramuscular administration; format: in vivo, mouse; conditions: for effect on forelimb muscular strength: vs saline control
# Experimental: 40 male ICR mice were divided equally into four groups: one control and three experimental groups. Animals of the control and experimental groups were treated with normal saline and with Az at doses of 0.03, 0.1 and 0.3 mg/kg, respectively. In addition 6 mice were treated with Az at dose of 0.01 mg/kg. The corresponding solutions were injected into the triceps muscles of the mouse forelimbs at a volume of 0.5 mL/kg per each limb. For all animals their basic forelimb grip strength was recorded before the substance administration with a 1027 grip strength meter (Columbus Instruments, Columbus, OH, USA). Further, their grip strength was measured 5, 10, 15, 20, 30, 60, 90 min after the Az (or normal saline) im administration.
# Rocuronium was administered intramuscularly as described for the measurement of acute toxicity (Section 5.4.1). Muscle strength was assessed prior to administration of the substance and then 1, 2, 3, 4, 5 min after administration.
# male ICR mice [3] = format: in vivo, mouse; conditions: 7-day im 0.15 and 0.5 mg/kg
# Experimental: (§1) For carrying out these experiments 90 male ICR mice were used, they were divided equally into three groups (30 animals per group) for each study and in these groups they were subdivided into subgroups of 10 mice each and treated as follows: mice of the first subgroup were injected with normal saline im, the second subgroup animals were treated with Az (0.15 mg/kg im) and the animals of the third subgroup were treated with Az (0.50 mg/kg im). The drugs were injected into the quadriceps muscle of the thigh (musculus quadriceps femoris) daily for seven days (1 mL/kg).
# On the last 7th day of the Az administration, the mice of the first group (30 animals) were immunized with a solution of trinitrobenzenesulfonic acid (TNBS) (200 μL, 10 mM) subcutaneously at the base of a tail. After 6 days the animals were secondarily immunized with TNBS (50 μL, 10 mM) injected in the pad of the left hind paw, the same volume of normal saline was injected into the right hind paw. 24 h after the second immunization, the animals were euthanized (CO2 inhalation) and the weights of their experimental and control paws were determined. The reaction index was calculated using the indicated formula: Ri=Wexp−Wcont/Wexp×100% Ri—reaction index, Wexp—weight of the experimental paw, Wcont—weight of the control paw.
# [4] = tested on: peritoneal macrophages of male ICR mice; format: in vivo, mouse; conditions: 7-day im 0.15 and 0.5 mg/kg
# Experimental: as §1
# On the next day after the seven-day course of the Az administration, the mice of the third group (30 animals) were injected intraperitoneally with 2 mL of ink particles suspension. After 10 min the mice were euthanized (CO2 inhalation) with a subsequent isolation of the peritoneal exudate from their abdominal cavity. In the exudate (1 μL) the total number of peritoneal macrophages and the number of the ink particle-containing (phagocytic) cells among them were counted using a Gorjaev’s chamber.
# [5] = tested on: hprt gene of CHO-k1 cells
# 5-HT3 receptors = conditions: concentration up to 10 μM; cited from earlier work
# [6] = tested on: GABAA (α1β3γ2 or α2β3γ2) receptors; conditions: concentration up to 100 μM; cited from earlier work
# [7] = intramuscular injection to mice (abstract)
substance,measurement,setting,value
"DNWWPKPPHQGPRPPRPRPKP-NH2 [Az, azemiopsin]",IC50,"[1]; 30 μM ACh (EC100), transfected Neuro2a cells, Case12 sensor, 15 min preincubation, mean ± SEM, 4 independent experiments, read-out: IC50, inhibition of ACh-evoked calcium response of muscle nAChR",19 ± 8 nM
same,selectivity to muscle receptor versus α7 nAChR,[1]; ratio of calcium imaging IC50 values α7 / muscle,about 140 times
same,decrease of grip strength,male ICR mice [2]; 0.1 mg/kg im,37%
same,average effective dose at the maximum response point,"male ICR mice [2]; 10 min after im injection, male ICR mice",0.09 mg/kg
same,effect on forelimb muscular strength,"male ICR mice [2]; Az 0.01 mg/kg im, n = 6",No significant differences; also recorded: not effective
same,effect on forelimb muscular strength,"male ICR mice [2]; Az 0.03, 0.1 and 0.3 mg/kg im, n = 10",significant decrease
same,time of maximal muscle relaxant effect after administration,"male ICR mice [2]; all doses studied, im, preserved until the 30th minute",10 min
same,duration of muscle relaxant effect,"male ICR mice [2]; depending on the dose, im",25 to 55 min
same,longest period of action,"male ICR mice [2]; dose 0.3 mg/kg im, from the 5th to the 60th minute",55 min
same,average effective dose (muscle relaxant effect),male ICR mice [2]; [7],0.09 mg/kg
same,initial effective dose (muscle relaxant effect),male ICR mice [2]; [7],0.03 mg/kg
same,initial effective dose (muscle relaxant effect),"male ICR mice [2]; single im injection in forelimb muscles, male ICR mice",0.03 mg/kg
same,degree of paw edema in delayed-type hypersensitivity to TNBS (cellular immunity),male ICR mice [3],did not cause any significant changes
same,phagocytic activity (engulfing ink particles) of peritoneal macrophages,[4],did not significantly change
same,frequency of mutations in the hprt gene,"[5]; Az 2.8 to 2000 μg/mL, 4 h, with or without S9, spontaneous 25.2 ± 1.6",23.5–30.2 × 10^−6
same,mutagenic capacity,"[5]; Az up to 2000 μg/mL, CHO-k1 cells",did not demonstrate any mutagenic capacity
same,activity against 5-HT3 receptors,5-HT3 receptors,no activity
same,activity against GABAA receptors,[6],no activity
